Data: US20100330116A1, “LIVE […] USE AS VACCINE” (The University of Queensland, priority 2004, published 2010)

Tests used:
[1] = tested on: FD436; assay: MBC determination of nalidixic acid and rifampicin (growth on SBA plates); settings: TSB, then SBA 37° C., 48 h
[2] = tested on: FD436; assay: MIC determination of nalidixic acid and rifampicin (broth dilution, Bioscreen turbidity); settings: TSB, 37° C., 24 h

| SMILES | MBC for FD436 [1] | MIC for FD436 [2] |
| --- | --- | --- |
| CCn1cc(C(=O)O)c(=O)c2ccc(C)nc21 [Nalidixic acid] | 0.00125 % (w/v) | 0.00125 % (w/v) |
| CO[C@H]1/C=C/O[C@@]2(C)Oc3c(C)c(O)c4c(O)c(c(/C=N/N5CCN(C)CC5)c(O)c4c3C2=O)NC(=O)/C(C)=C\C=C\[C@H](C)[C@H](O)[C@@H](C)[C@@H](O)[C@@H](C)[C@H](OC(C)=O)[C@@H]1C [Rifampicin] | 0.0025 % (w/v) | 0.0025 % (w/v) |
